Measurements reported in article PMC7562955 (Nature Communications, 2020).

Molecular target: T1, TLR7 (Homo sapiens, UniProt Q9NYK1)
T1 sequence (Q9NYK1 27-1049): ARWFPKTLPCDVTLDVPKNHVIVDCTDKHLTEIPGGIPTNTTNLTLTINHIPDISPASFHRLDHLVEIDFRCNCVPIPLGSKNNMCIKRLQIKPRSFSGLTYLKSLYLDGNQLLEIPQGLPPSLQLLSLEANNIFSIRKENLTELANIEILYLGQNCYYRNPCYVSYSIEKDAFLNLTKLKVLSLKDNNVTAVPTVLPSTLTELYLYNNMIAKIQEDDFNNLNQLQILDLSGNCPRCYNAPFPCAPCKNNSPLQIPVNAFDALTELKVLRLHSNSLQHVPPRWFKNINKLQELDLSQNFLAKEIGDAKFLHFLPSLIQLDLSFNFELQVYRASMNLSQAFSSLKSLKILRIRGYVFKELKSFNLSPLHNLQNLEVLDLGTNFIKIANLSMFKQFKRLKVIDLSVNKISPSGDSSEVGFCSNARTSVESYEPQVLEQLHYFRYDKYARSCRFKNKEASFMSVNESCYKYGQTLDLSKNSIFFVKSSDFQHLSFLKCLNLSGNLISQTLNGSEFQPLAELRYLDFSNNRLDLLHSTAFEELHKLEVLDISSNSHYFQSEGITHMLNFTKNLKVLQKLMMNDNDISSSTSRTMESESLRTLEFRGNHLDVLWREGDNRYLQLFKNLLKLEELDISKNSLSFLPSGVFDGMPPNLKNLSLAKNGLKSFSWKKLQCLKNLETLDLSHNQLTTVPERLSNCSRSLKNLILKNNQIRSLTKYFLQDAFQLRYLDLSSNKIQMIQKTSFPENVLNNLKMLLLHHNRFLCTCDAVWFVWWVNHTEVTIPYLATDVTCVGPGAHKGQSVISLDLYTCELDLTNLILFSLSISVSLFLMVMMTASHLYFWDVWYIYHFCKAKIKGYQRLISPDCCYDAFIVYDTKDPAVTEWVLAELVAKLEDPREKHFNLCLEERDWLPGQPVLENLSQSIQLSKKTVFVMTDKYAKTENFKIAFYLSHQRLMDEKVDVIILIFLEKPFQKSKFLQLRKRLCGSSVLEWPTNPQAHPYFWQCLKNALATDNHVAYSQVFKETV
Test: Human TLR7 reporter gene agonistic activity assay
Assay type: cell-based
Set-up: host or cells: HEK293 (TLR7/NF-κB/SEAPorter)
Description: Compounds were dissolved in dimethyl sulfoxide. Before stimulation with compound, Human TLR7 reporter cell line (Novus Biological) was seeded in 96-well microtiter plate (AGC techno glass) at 5 × 10^4 cells/well in DMEM (GIBCO) with 10% fetal bovine serum (GIBCO), and 10 ug/ml Blastcidin S HCl (GIBCO) and incubated at 37 °C in 5% CO2. The plates were incubated over-night and then stimulated with various concentrations of compound and R848. The plates were then incubated an additional 20 ± 1 h at 37 °C in 5% CO2 and then the secreted embryonic alkaline phosphatase (SEAP) activity was measured as activation of human TLR7. The SEAP activity was evaluated as follows: pNPP (Invitrogen, USA) was added to the incubated sample (50 μl/well); after 15 min, 4 M sodium hydroxide solution (nacalai tesque, Japan) was added thereto (50 μl/well) to quench the reaction; and the absorbance of each sample was measured at 405 nm with microplate reader SpectraMax M4 (Molecular Devices, USA).

Structure (SMILES)	activation of TLR7	activation of human TLR7, reporter signal (compound 0.001 nM (as headed))	activation of human TLR7, reporter signal (compound 0.003 nM (as headed))	activation of human TLR7, reporter signal (compound 0.01 nM (as headed))	activation of human TLR7, reporter signal (compound 0.03 nM (as headed))	activation of human TLR7, reporter signal (compound 0.1 nM (as headed))	activation of human TLR7, reporter signal (compound 0.3 nM (as headed))	activation of human TLR7, reporter signal (compound 1 nM (as headed))	activation of human TLR7, reporter signal (compound 3 nM (as headed))	activation of human TLR7, reporter signal (compound 10 nM (as headed))	activation of human TLR7, reporter signal (compound 30 nM (as headed))	activation of human TLR7, reporter signal (compound 100 nM (as headed))
CCCCOc1nc(N)c2nc(-c3cccnc3)n(Cc3ccccc3)c2n1 [Cpd-5]	without causing any inhibition of either TLR8 or TLR9 and activation of TLR7	-0.0519	-0.05305	-0.08885	-0.06455	-0.0507	-0.02125	-0.05725	-0.0655	-0.0852	-0.0846	-0.0973
CCOc1nc(N)c2nc(-c3cncc(F)c3)n(Cc3ccc(CN4C[C@@H]5C[C@H]4CN5C)cc3)c2n1 [Cpd-6]	–	-0.07495	-0.076	-0.1139	-0.0956	-0.074	-0.01435	-0.0641	-0.07475	-0.1166	-0.1098	-0.12
CCOc1nc(C)c2nc(-c3cncc(F)c3)n(Cc3ccc(CN4C[C@@H]5C[C@H]4CN5C)cc3)c2n1 [Cpd-7]	–	-0.0428	-0.04595	-0.1002	-0.06165	-0.0434	-0.02775	-0.0578	-0.0693	-0.1036	-0.0961	-0.09835
